Reference: the NIST ThermoML archive (doi:10.1021/je030132i)

Test: xn = mol fraction of the nth substance listed
Details: 101.3 kPa, Liquid; for viscosity: Capillary tube (Ostwald / Ubbelohde) method; for mass density: Vibrating tube method

CC(O)CNCC(C)O (configuration not stated) [N-(2-hydroxypropyl)-2-hydroxy-1-propanamine] + O
Details | mass density [kg/m3] | viscosity [mPa·s]
298.15 K, x1 = 0.02 | 1005.22 | 1.645
298.15 K, x1 = 0.0498 | 1015.93 | 3.723
298.15 K, x1 = 0.0701 | 1021.72 | 6.06
298.15 K, x1 = 0.1001 | 1027.13 | 11.55
298.15 K, x1 = 0.1999 | 1030.9 | 55.69
298.15 K, x1 = 0.3006 | 1027.13 | 166.1
298.15 K, x1 = 0.3963 | 1022.42 | 338.7
298.15 K, x1 = 0.5012 | 1017.79 | 613
298.15 K, x1 = 0.5957 | 1014.09 | 861
298.15 K, x1 = 0.7034 | 1010.66 | 1142
298.15 K, x1 = 0.8029 | 1008.07 | 1326
298.15 K, x1 = 0.9016 | 1006.28 | 1478
313.15 K, x1 = 0.02 | 999.64 | 1.112
313.15 K, x1 = 0.0498 | 1008.66 | 2.218
313.15 K, x1 = 0.0701 | 1013.2 | 3.335
313.15 K, x1 = 0.1001 | 1017.4 | 5.56
313.15 K, x1 = 0.1999 | 1019.77 | 20.63
313.15 K, x1 = 0.3006 | 1016.15 | 46.9
313.15 K, x1 = 0.3963 | 1011.45 | 87.7
313.15 K, x1 = 0.5012 | 1006.84 | 139.1
313.15 K, x1 = 0.5957 | 1003.2 | 184.6
313.15 K, x1 = 0.7034 | 999.62 | 229.9
313.15 K, x1 = 0.8029 | 997.1 | 264.6
313.15 K, x1 = 0.9016 | 995.03 | 290.7
318.65 K, x1 = 0.02 | 997.52 | 0.992
318.65 K, x1 = 0.0498 | 1006.43 | 1.914
318.65 K, x1 = 0.0701 | 1010.34 | 2.776
318.65 K, x1 = 0.1001 | 1014 | 4.6
318.65 K, x1 = 0.1999 | 1015.54 | 15.21
318.65 K, x1 = 0.3006 | 1011.9 | 32.42
318.65 K, x1 = 0.3963 | 1007.24 | 58.7
318.65 K, x1 = 0.5012 | 1002.82 | 88.1
318.65 K, x1 = 0.5957 | 999.15 | 114.5
318.65 K, x1 = 0.7034 | 995.55 | 140
318.65 K, x1 = 0.8029 | 993.04 | 159.5
318.65 K, x1 = 0.9016 | 990.99 | 174.2
318.65 K, x1 = 1 | 988.22 | 186.6
323.15 K, x1 = 0.02 | 995.02 | 0.907
323.15 K, x1 = 0.0498 | 1003.09 | 1.684
323.15 K, x1 = 0.0701 | 1006.95 | 2.408
323.15 K, x1 = 0.1001 | 1010.46 | 3.78
323.15 K, x1 = 0.1999 | 1012.04 | 12.06
323.15 K, x1 = 0.3006 | 1008.24 | 24.56
323.15 K, x1 = 0.3963 | 1003.75 | 42.8
323.15 K, x1 = 0.5012 | 999.39 | 63.37
323.15 K, x1 = 0.5957 | 995.71 | 79.93
323.15 K, x1 = 0.7034 | 992.23 | 96.22
323.15 K, x1 = 0.8029 | 989.58 | 108.7
323.15 K, x1 = 0.9016 | 987.51 | 118
323.15 K, x1 = 1 | 984.9 | 125.7
333.15 K, x1 = 0.02 | 989.76 | 0.733
333.15 K, x1 = 0.0498 | 996.93 | 1.355
333.15 K, x1 = 0.0701 | 1000.34 | 1.816
333.15 K, x1 = 0.1001 | 1003.16 | 2.719
333.15 K, x1 = 0.1999 | 1004.03 | 7.5
333.15 K, x1 = 0.3006 | 1000.17 | 14.15
333.15 K, x1 = 0.3963 | 995.77 | 22.89
333.15 K, x1 = 0.5012 | 991.52 | 32.12
333.15 K, x1 = 0.5957 | 987.88 | 39.31
333.15 K, x1 = 0.7034 | 984.45 | 46.32
333.15 K, x1 = 0.8029 | 981.79 | 51.38
333.15 K, x1 = 0.9016 | 979.72 | 55.03
333.15 K, x1 = 1 | 977.3 | 57.99
343.15 K, x1 = 0.02 | 983.93 | 0.621
343.15 K, x1 = 0.0498 | 990.37 | 1.061
343.15 K, x1 = 0.0701 | 993.22 | 1.412
343.15 K, x1 = 0.1001 | 995.55 | 2.042
343.15 K, x1 = 0.1999 | 995.78 | 5.05
343.15 K, x1 = 0.3006 | 991.86 | 8.7
343.15 K, x1 = 0.3963 | 987.44 | 13.34
343.15 K, x1 = 0.5012 | 983.33 | 17.88
343.15 K, x1 = 0.5957 | 979.75 | 21.19
343.15 K, x1 = 0.7034 | 976.35 | 24.42
343.15 K, x1 = 0.8029 | 973.95 | 26.64
343.15 K, x1 = 0.9016 | 971.72 | 28.29
343.15 K, x1 = 1 | 969.58 | 29.55
